Source: patent EP0411182A1, “Ascorbic acid derivative” (NIPPON HYPOX LABORATORIES INCORPORATED, priority 1989, dated 1991)

Test: Effects on formazan formation in the xanthine-xanthine oxidase-Nitrotetrazolium Blue system
Assay type: biochemical
Conditions: for Inhibition ratio (%) of formazan formation: 0.05 M phosphoric acid buffer pH 7.8, 30°C
Procedure: Test example 2 (Effects on formazan formation in the xanthine-xanthine oxidase-Nitrotetrazolium Blue system)
Specimens were added to a 0.05 M phosphoric acid buffer solution (pH 7.8) containing xanthine, EDTA 2Na and Nitrotetrazolium Blue (NTB) so as to provide the respective final concentrations of 5x10⁻⁵ M, 1x10⁻⁴ M and 5x10⁻⁴ M and warmed at 30°C for 30 minutes. Xanthine oxidase (manufactured by Sigma Corp.) was added, and the resulting mixtures were warmed at 30°C for 10 minutes to colorimetrically determine formazan formed by superoxide anion radicals. The inhibition ratio of formazan formation was determined from the results at concentrations of 0.5 mM and 4 mM of each specimen.

Inhibition ratio (%) of formazan formation (Concentration 0.5 mM): 17.8%
Inhibition ratio (%) of formazan formation (Concentration 4 mM): 55.5%
formazan formation (result in words) (summary of Table-4): remarkably inhibited formazan formation
Compound: COC(=O)COC1=C(O)[C@@H]([C@@H]2COC(C)(C)O2)OC1=O [Compound 206, L-5,6-O-isopropylidene-2-O-methylcarbomethylascorbic acid]
